Reference: patent publication US20230270781A1, “TREATMENT OR PREVENTION OF PRO-INFLAMMATORY DISEASES OR CONDITIONS USING INDUCED REGULATORY T (ITREG) CELLS” (RAPA THERAPEUTICS, LLC, priority 2020, published 2023)

System: T cell TCR specificities of peripheral blood mononuclear cells
Assay: RNA-based T cell receptor repertoire profiling pre- and post-etanercept therapy
Type: in vivo, human
Text: (§1) FIGS. 23A & 23B depict the use of RNA-based T cell receptor sequencing to detect a widespread up- and down-regulation of T cell TCR specificities after therapy with the TNF-α inhibitor, etanercept. In FIG. 23, RNA was isolated from peripheral blood mononuclear cells from an patient pre- and post-therapy with etanercept therapy. The RNA was subjected to TCR repertoire profiling, as previously described by Rosati E, Dowds CM, Liaskou E, Henriksen EKK, Karlsen TH, Franke A. Overview of methodologies for T-cell receptor repertoire analysis. BMC Biotechnol. 2017;17(1):61.
as §1, with “FIGS. 36A-36B” for “FIGS. 23A & 23B”, “depict” for “depict the”, “In FIGS. 36A-36B,” for “In FIG. 23,”, “from a” for “from an”

[1] = patient PBMC, post- versus pre-etanercept

Substance: etanercept
- post-treatment frequencies of contracted T cell clones (SEQ ID NOs: 1-3 and 5) (decreased from frequencies of 259 to 598 pre-etanercept): 0.01
- TCR specificities down-regulated in the post-therapy sample [1]: approximately 25%
- TCR specificities up-regulated in the post-therapy sample [1]: approximately 25%
- T cell clonal contraction (post- versus pre-etanercept): more than 4 log
- T cell clonal expansion (post- versus pre-etanercept): more than 4 log
